pEC50: −log10 of the molar value.
target: T1, Muscarinic acetylcholine receptor M4 (Rattus norvegicus, UniProt P08485); test: M4 receptor positive allosteric modulators, SAR follow-up, cell-based, rat M4, analogs (AID 1938)
T1 sequence (P08485 whole entry): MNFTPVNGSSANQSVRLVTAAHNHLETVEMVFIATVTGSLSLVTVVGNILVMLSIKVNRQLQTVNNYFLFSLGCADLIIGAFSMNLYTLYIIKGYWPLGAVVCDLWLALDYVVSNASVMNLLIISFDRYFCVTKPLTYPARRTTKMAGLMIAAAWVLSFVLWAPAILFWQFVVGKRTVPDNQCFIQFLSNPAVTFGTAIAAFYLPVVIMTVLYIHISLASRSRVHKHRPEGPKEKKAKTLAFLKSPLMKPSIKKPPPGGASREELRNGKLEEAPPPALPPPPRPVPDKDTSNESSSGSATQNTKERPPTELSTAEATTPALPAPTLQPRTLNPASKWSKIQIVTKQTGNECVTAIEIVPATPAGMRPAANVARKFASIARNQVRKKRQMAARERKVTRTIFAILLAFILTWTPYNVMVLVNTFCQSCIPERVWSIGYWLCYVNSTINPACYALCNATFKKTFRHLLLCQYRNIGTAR

Row | SMILES | pEC50
1 | COc1ccc(CNC(=O)c2sc3nc(OCc4ccncc4)cc(C)c3c2N)cc1 [3-amino-4-methyl-N-p-anisyl-6-(4-pyridylmethoxy)thieno[2,3-b]pyridine-2-carboxamide] | 5.71
2 | Cc1cc(OCc2ccncc2)nc2sc(C(=O)NCc3cccc(F)c3F)c(N)c12 [3-amino-N-(2,3-difluorobenzyl)-4-methyl-6-(4-pyridylmethoxy)thieno[2,3-b]pyridine-2-carboxamide] | 5.78
3 | Cc1cc(C)c2c(N)c(C(=O)NCc3ccc4c(c3)OCO4)sc2n1 [3-amino-4,6-dimethyl-N-piperonyl-thieno[2,3-b]pyridine-2-carboxamide] | 6.39

— BindingDB's records for doi:10.7270/Q2XD103V (Vanderbilt Screening Center for GPCRs, Ion Channels and …, 2010)
